{"source": "patent US8841269B2", "about": "“Polynucleotides for use in treating and diagnosing cancers” (Creighton University, priority 2010, dated 2014)", "key": {"[1]": {"test_system": "ER-α", "experiment": "Immunoblot of ER-α after transfection in MCF7", "assay_type": "cell-based, human", "settings": "MCF7, mimics 60 nmol/L", "from_the_text": "(§1) Immunoblot analysis. For Western blot in FFPE tissues, an established method was followed (Addis et al., 2009, Proteomics 9:3815-23). For MCF7 cell line, let-7 mimics and negative control miRNA (60 nmol/L), or let-7 inhibitors and anti-miR negative control (60 nmol/L) were transfected following the protocol of siPORT NeoFX Transfection Agent (Applied Biosystems), The Western blot procedure was described before (Zhang et al., 2010, J Proteome Res., 9(2):980-989). Antibody information is as follows: ER-α, RB-9016-P1, Thermoscientific; Cyclin D1, sc-8396, Santa Cruz; pS2, ab80782 was Abeam; β-Actin, sc-69879, Santa Cruz."}, "[2]": {"test_system": "pS2", "experiment": "Immunoblot of pS2 after transfection in MCF7", "assay_type": "cell-based, human", "settings": "MCF7, mimics; for expression of pS2 (protein): after 2 days; for protein expression of pS2: after 6 days", "from_the_text": "as §1"}, "[3]": {"test_system": "estrogen response element (ERE) construct", "experiment": "ERE luciferase assay (2 ERE-tk-Luc), genomic estrogen pathway in MCF7", "assay_type": "cell-based, human", "settings": "for ERE luciferase activity: MCF7, p2 ERE-tk-Luc, 10 nmol/L E2 12 hours, p<0.01; for luciferase activity of the ERE construct: MCF7 cell line", "method": "For checking on the genomic estrogen pathway, 10^5 MCF7 cells were first seeded into each well on a 24-well plate and cultured in IMEM with 2.5% charcoal-stripped FBS for 2 days. Then the cells were transfected as described above except that the estrogen response element (ERE) construct (2 ERE-tk-Luc; obtained from Katarine Pettersson, Karolinska Institute, Stockholm) replaced the pMIR-REPORT plasmid for 1 day. After stimulation with 10 nmol/L E2 for 12 hours, luciferase activity was measured as described above."}, "[4]": {"test_system": "MCF7 cells", "experiment": "MTT cell proliferation assay in MCF7", "assay_type": "cell-based, human", "settings": "for cell growth (MTT) with E2: MCF7, E2 free medium with addition of 10 nmol/L E2; for cell growth (MTT): MCF7, E2 free medium with or without addition of 10 nmol/L E2 (FIG. 9B-D); for day from which significant effect on proliferation was detected / cell proliferation (MTT): MCF7, normal growth medium; for cell proliferation (MTT): 60 nmol/L", "method": "MTT cell proliferation assay. MCF7 cells were transfected with let-7 mimics or negative controls (60 nmol/L) in normal growth medium for 1 day, or in medium with 2.5% charcoal-stripped FBS for 2 days to exhaust endogenous estrogen, following the protocol of siPORT NeoFX Transfection Agent (Applied Biosystems). For the experiment in normal growth medium, 10^4 cells in the volume of 100 μL were seeded in a 96-well plate for 12 hours and assay lasted for another 4 days. For experiments in E2 free medium, 1.5 10^4 cells were seeded in a 96-well plate for 12 hours and then exposed to 10 nmol/L E2, or not, for up to 4 days. For both experiments, each treatment had 12 replicates on the plate. The cells were then incubated in 0.83 mg/mL 3-[4,5-dimethylthiazol-2-yl]-2,5-diphenyltetrazolium bromide (MTT) in growth medium at 37° C. for 4 h and lysed in 100 μL of DMSO at room temperature for 15 min. The absorbance in each well was measured at 490 nm by an ELx800 Absorbance Microplate Reader (Biotek). Cell proliferation was normalized to day 0."}, "[5]": {"test_system": "MCF7 cells", "experiment": "Annexin-V binding assay for apoptosis in MCF7", "assay_type": "cell-based, human", "method": "Annexin-V binding assay for apoptosis. […] The staining followed the protocol of FITC Annexin V Apoptosis Detection Kit I (Cat #556547, BD Biosciences). Cell populations were analyzed with a BD FACSAria™ flow cytometer. Approximately 20,000 cells were counted for each sample."}, "[6]": {"test_system": "3′ UTR of human ER-α36 gene", "experiment": "Luciferase reporter assay, ER-α36 3′ UTR let-7 binding site in pMIR-REPORT", "assay_type": "cell-based", "settings": "MCF7 cells; for luciferase activity, ER-α36 3′-UTR binding site: 60 nmol/L mimics", "from_the_text": "A fragment of the 3′ UTR of human ER-α36 gene, which harbors the putative let-7 target sites, was synthesized (IDT, Coralville, Iowa). With the SpeI and HindIII restriction sites at the ends, respectively, the sense strand is 5′-ctag[…] (SEQ ID NO:41) and the antisense strand is 5′-agct[…] (SEQ ID NO:42). The sense and antisense oligonucleotides were annealed and ligated into the SpeI/HindIII sites of the pMIR-REPORT luciferase vector (Ambion, Austin, Tex.). The sequences were verified by DNA sequencing. Transfection was performed in 24-well plate using Lipofectamine 2000 (Invitrogen). Let-7 mimics, anti-let-7 inhibitors, or negative controls were transfected with 0.25 μg luciferase construct and 0.25 μg β-galactosidase plasmid (Ambion) to check transfection efficiency. Twenty-four hours post-transfection, the luciferase activity was measured using Dual-Glo Luciferase Assay System (Promega, Fitchburg, Wis.) in Veritas Microplate Luminometer (Turner Biosystems, Sunnyvale, Calif.)."}, "[7]": {"test_system": "ER-α36", "experiment": "Immunoblot of ER-α36 after transfection", "assay_type": "cell-based, human", "settings": "MDA-MB-231, two days post transfection of mimics", "method": "Let-7 miRNA or negative control #1 miRNA of 60 nmol/L (Ambion, Austin, Tex.) was transfected into cells with the siPORT NeoFX reagent (Ambion, Austin, Tex.) following the manufacturer's protocol.\nCells were lysed with NP40 cell lysis buffer (250 mM NaCl, 50 mM Tris-HCl, pH 7.4, 5 mM EDTA, 50 mM NaF, 1 mM Na3VO4, 1% Nonidet P40, 1 mM PMSF, proteinase and phosphoproteinase inhibitor cocktails). The protein was also extracted from FFPE sections. FFPE sections (50 μm thick) were transferred into a microcentrifuge tube and treated with xylene, followed by vortexing vigorously for 10 seconds. After centrifugation and removal of supernatant, the sections were washed with xylene two more times, followed by one more wash with 1 mL of 100% ethanol. The resultant pellets were vacuum dried, then resuspended in 300 μL of 20 mM Tris-HCl (pH 8.0) and 2% SDS and homogenized. The samples were then boiled at 100° C. for 20 minutes and incubated at 60° C. for 1 hour. After centrifugation at 10,000 g for 15 min at 4° C., the supernatant protein was saved for immunoblot analysis.\nAfter mixed with gel-loading buffer and boiled for 5 minutes, the protein samples were separated with 10% SDS-PAGE and transferred to a PVDF membrane (Millipore, Billerica, Mass.). […] Gel density was quantified with Quantity One and expressed as a relative value against β-actin. […]"}}, "note": "Entries after “also recorded” stand apart in the source; their conditions may differ.", "data": [{"substance": "let-7i: let-7i miRNA (mimic), 3′-UUGUCGUGUUUGAUGAUGGAGU-5′ (SEQ ID NO:14) (chemistry not given here; listed 3' to 5')", "values": [{"measurement": "expression of ER-α (protein)", "setting": "[1]; after 2 days", "result": "significantly depressed the expression of ER-α"}, {"measurement": "expression of ER-α (protein)", "setting": "[1]; after 6 days", "result": "dramatically down-regulated the expression of ER-α"}, {"measurement": "expression of pS2 (protein)", "setting": "[2]", "result": "significantly inhibited"}, {"measurement": "protein expression of pS2", "setting": "[2]", "result": "significantly suppressed"}, {"measurement": "ERE luciferase activity", "setting": "[3]", "result": "about 60 % of negative control"}, {"measurement": "luciferase activity of the ERE construct", "setting": "[3]", "result": "inhibit the luciferase activity of the ERE construct"}, {"measurement": "cell growth (MTT) with E2", "setting": "[4]", "result": "consistent inhibition"}, {"measurement": "cell growth (MTT)", "setting": "[4]", "result": "strongly inhibited"}, {"measurement": "day from which significant effect on proliferation was detected", "setting": "[4]", "result": 3, "unit": "days"}, {"measurement": "cell proliferation (MTT)", "setting": "[4]", "result": "significantly inhibited cell proliferation"}, {"measurement": "effect on apoptosis", "setting": "[5]; MCF7, after either 3 days or 6 days", "result": "not significant"}, {"measurement": "luciferase activity, ER-α36 binding site", "setting": "[6]", "result": "significantly inhibited the luciferase activity"}, {"measurement": "luciferase activity, mutated ER-α36 binding sequence", "setting": "[6]", "result": "abrogated the inhibitory effects; also recorded: did not show inhibition"}, {"measurement": "luciferase activity, ER-α36 3′-UTR binding site", "setting": "[6]", "result": "about 60 % of the activity in the control cells"}, {"measurement": "ER-α36 protein level", "setting": "[7]", "result": "strongly inhibited; also recorded: inhibited"}]}, {"substance": "let-7b: let-7b miRNA (mimic), 3′-UUGGUGUGUUGGAUGAUGGAGU-5′ (SEQ ID NO:8) (chemistry not given here; listed 3' to 5')", "values": [{"measurement": "expression of ER-α (protein)", "setting": "[1]; after 2 days", "result": "significantly depressed the expression of ER-α"}, {"measurement": "expression of ER-α (protein)", "setting": "[1]; after 6 days", "result": "dramatically down-regulated the expression of ER-α"}, {"measurement": "expression of pS2 (protein)", "setting": "[2]", "result": "significantly inhibited"}, {"measurement": "protein expression of pS2", "setting": "[2]", "result": "significantly suppressed"}, {"measurement": "ERE luciferase activity", "setting": "[3]", "result": "about 40 % of negative control"}, {"measurement": "luciferase activity of the ERE construct", "setting": "[3]", "result": "inhibit the luciferase activity of the ERE construct"}, {"measurement": "cell growth (MTT) with E2", "setting": "[4]", "result": "consistent inhibition"}, {"measurement": "cell growth (MTT)", "setting": "[4]", "result": "strongly inhibited"}, {"measurement": "day from which significant effect on proliferation was detected", "setting": "[4]", "result": 2, "unit": "days"}, {"measurement": "cell proliferation (MTT)", "setting": "[4]", "result": "significantly inhibited cell proliferation"}, {"measurement": "apoptotic rate", "setting": "[5]; MCF7, after 6 days", "result": 28.6, "unit": "%"}, {"measurement": "apoptotic rate", "setting": "[5]; MCF7, three days post-transfection", "result": 7, "unit": "%"}, {"measurement": "luciferase activity, ER-α36 binding site", "setting": "[6]", "result": "significantly inhibited the luciferase activity"}, {"measurement": "luciferase activity, mutated ER-α36 binding sequence", "setting": "[6]", "result": "abrogated the inhibitory effects; also recorded: did not show inhibition"}, {"measurement": "luciferase activity, ER-α36 3′-UTR binding site", "setting": "[6]", "result": "about 60 % of the activity in the control cells"}, {"measurement": "ER-α36 protein level", "setting": "[7]", "result": "strongly inhibited; also recorded: inhibited"}]}]}
